Earlier results in patent US20220265565A1, “NANOTECHNOLOGY-BASED DELIVERY SYSTEM OF BERGAMOT ESSENTIAL OIL, METHOD OF PREPARATION OF THE SYSTEM AND USES THEREOF” (priority 2019, published 2022).

Key:
[1] = test system: nociceptive response in the capsaicin test; conditions: for nociceptive response in the capsaicin test: intraplantar (i.pl.) administration
[2] = about 0.2% in the nonvolatile residue of BEO
[3] = test system: PSNL-induced neuropathic pain symptoms in mice

## C=CC(C)(CCC=C(C)C)OC(C)=O (stereo not drawn) [linalyl acetate]
[1]
  nociceptive response in the capsaicin test: reduced the nociceptive response

## COc1c2ccoc2cc2oc(=O)ccc12 [bergapten, 5-methoxypsoralen]
[2]
  phototoxicity: responsible for the phototoxicity of BEO

## C=CC(C)(O)CCC=C(C)C (stereo not drawn) [linalool]
[3]; neuropathic pain models, PSNL mice, i.pl. injection
  neuropathic pain symptoms / mechanical allodynia: reduced partial sciatic nerve ligation (PSNL)-induced neuropathic pain symptoms
[3]; under neuropathic pain
  morphine-induced anti-allodynic effect: modulate morphine-induced anti-allodynic effect
[1]
  nociceptive response in the capsaicin test: reduced the nociceptive response
[1]; morphine i.p. or i.t. combined with i.pl. injection of the substance
  morphine-induced antinociception with combined injection: markedly enhanced
